One experiment has as its system α9-nAChR mRNA. The experiment is described as follows: α9-nAChR mRNA by RT-PCR / real-time PCR in MCF-7 cells. The conditions noted are these: 24 h. The class given is cell-based, human. How it is done:
Total RNA was isolated from human cell lines using TRIzol (Invitrogen, Carlsbad, Calif., USA) according to the manufacturer's protocol. The α9-nAChR subunit-specific primers were synthesized by MB Mission BioTech (Taipei, Taiwan) as described in the previous reports (Chen, C. S., Lee, C. H., Hsieh, C. D., Ho, C. T. et al., Breast Cancer Res. Treat. 2010; Shih, Y. L., Liu, H. C., Chen, C. S., Hsu, C. H. et al., J. Agric. Food Chem. 2010, 58, 235-241). The PCR amplicons were analyzed on 1.2% agarose gels (Amresco, Solon, Ohio, USA) stained with ethidium bromide. The α9-nAChR mRNA intensity was measured and normalized to β-glucuronidase expression. Pictures of the bands were taken using an INFINITY-α digital imaging system (Vilber Lourmat, France), and band intensities were determined using PhotoCapt Version 11.01 software.
A general note: Quantitative PCR measures a nucleic acid by following its amplification.

Another experiment deals with α9-nAChR promoter. The experiment is described as follows: α9-nAChR promoter luciferase activity assay in MCF-7 cells. Type of experiment: cell-based, human. The settings on record: EGCG 10 μM 24 h pretreatment, then Nic or E2 24 h. How it is done: All α9-nAChR promoter—luciferase gene fusions were made in the pGL3-Basic vector (Promega, Madison, Wis., USA) by introducing the appropriate α9-nAChR promoter fragments into the polylinker upstream of the luciferase gene. These fragments were generated with restriction enzymes and cloned directly into pGL3-Basic or subcloned first in pBluescript and then transferred to pGL3-Basic. Deletion analysis of the most promoter-proximal region was performed by generating either appropriate restriction enzyme fragments or PCR fragments with suitable sense oligonucleotides and an antisense primer (5′-[…]-3′ (SEQ ID NO:1)) that anneals to the pGL3-Basic vector downstream of the site of transcription initiation.
MCF-7 cells were plated in 6-well plates. Cells were transiently cotransfected the next day with 1.5 μg of PGL3-Basic plasmid containing the full-length α9-nAChR promoter and 0.1 μg of the RLTK plasmid (Promega) using an MP-100 microporator (Digital Bio), according to the manufacturer's instructions. After incubation for 24 h, the medium was changed to culture medium containing 10% FBS or 0.1% FB S with or without Nic. Cells were lysed 24 h later with 1× Reporter Lysis Buffer (Promega) and stored frozen at −20° C. overnight. Luciferase activity was determined by testing 50 μL of the cell lysate and 50 μL of the Luciferase Assay Reagent (Promega) using a HIDEX Chameleon Microplate Reader. Relative luciferase units were normalized to renilla luciferase from the same cell lysates. Each luciferase assay experiment was performed three times.

Here are results for one compound from patent publication US20120208873A1, “TEA POLYPHENOLS PRODUCTS FOR CEASING SMOKING AND TREATING AND/OR PREVENTING NICOTINE OR NICOTINE-DERIVED COMPOUNDS OR ESTROGEN INDUCED BREAST CANCER” (priority 2011, published 2012).

`O=C(O[C@@H]1Cc2c(O)cc(O)cc2O[C@@H]1c1cc(O)c(O)c(O)c1)c1cc(O)c(O)c(O)c1` [EGCG, (−)-epigallocatechin-3-gallate]: in the experiment on α9-nAChR mRNA (EGCG 1 μM with Nic 10 μM, RT-PCR), the “α9-nAChR mRNA in Nic-treated cells” value is on record as “downregulated”. Moreover, the “Nic- or E2-induced α9-nAChR mRNA upregulation (real-time PCR)” value in the experiment on α9-nAChR mRNA (EGCG 10 μM, Nic 10 μM or E2 10 nM) was “completely attenuated”. Moreover, the “Nic- and E2-induced α9-nAChR promoter luciferase activity” value with α9-nAChR promoter was “significantly reduces”.
